Test results published in the supplement of paper PMC8253809.

Experiments:
DIPGX29 [1] = H3.3 K27M diffuse intrinsic pontine glioma line; test: EC50 (inflection of fitted growth-inhibition curve) (log10 M)
How it was run: (§1)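 A pin tool was used to add a 10-point threefold dilution series (mean top concentration 35 μM), in triplicate, to patient-derived pHGG/DIPG cell lines and astrocyte controls seeded on 384-well plates coated with 1% Geltrex. After 7 days at 37 °C and 5% CO2 (3 days for iAstro), CellTiter-Glo luminescence was log2-transformed, normalised on each plate to % activity relative to negative (solvent) and positive control wells, and pooled. EC50 and maximal response (yFin) were read from the three- or four-parameter log-logistic fit with the lowest AICc.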

HGGX2 [2] = paediatric high-grade glioma line; test: as above
How it was run: as §1

HABS [3] = astrocyte control; test: as above
How it was run: as §1

SUDIPGXIII [4] = diffuse intrinsic pontine glioma line; test: as above
How it was run: as §1

HGGX42 [5] = H3.3 G34R paediatric high-grade glioma line; test: as above
How it was run: as §1

SUDIPGIV [6] = diffuse intrinsic pontine glioma line; test: as above
How it was run: as §1

DIPGX9 [7] = diffuse intrinsic pontine glioma line; test: as above
How it was run: as §1

SUDIPGVI [8] = diffuse intrinsic pontine glioma line; test: as above
How it was run: as §1

SUDIPGXXI [9] = diffuse intrinsic pontine glioma line; test: as above
How it was run: as §1

iAstro [10] = astrocyte control; test: as above
How it was run: as §1

SUDIPGXVII [11] = diffuse intrinsic pontine glioma line; test: as above
How it was run: as §1

DIPGX37 [12] = H3.3 K27M diffuse intrinsic pontine glioma line; test: as above
How it was run: as §1

HGGX39 [13] = paediatric high-grade glioma line; test: as above
How it was run: as §1

SUDIPGXIX [14] = diffuse intrinsic pontine glioma line; test: as above
How it was run: as §1

DIPGX7 [15] = H3.3 K27M diffuse intrinsic pontine glioma line; test: as above
How it was run: as §1

DIPGX29 [16] = test: area under dose-response curve of % growth inhibition (log2 RLU vs DMSO / staurosporine), 1e-11 to 1e-4 M (% x log10 M); higher = more growth inhibition
How it was run: (§2)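 A 10-point threefold dilution series, mean top concentration 35 μM, was applied in triplicate to patient-derived pHGG/DIPG lines and astrocytes on 1% Geltrex-coated 384-well plates for 7 days (3 days for iAstro) at 37 °C, 5% CO2. Per-plate % activity between solvent and positive controls was calculated from log2-transformed CellTiter-Glo luminescence. Area under the curve followed from the trapezoid rule on a log-logistic fit, or on a smoothing spline when the sigmoid fit failed.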

HGGX2 [17] = test: as above
How it was run: as §2

HABS [18] = test: as above
How it was run: as §2

HGGX6 = H3.3 G34R paediatric high-grade glioma line; test: as above
How it was run: as §2

SUDIPGXIII [19] = test: as above
How it was run: as §2

HGGX42 [20] = test: as above
How it was run: as §2

SUDIPGIV [21] = test: as above
How it was run: as §2

DIPGX9 [22] = test: as above
How it was run: as §2

SUDIPGVI [23] = test: as above
How it was run: as §2

SUDIPGXXI [24] = test: as above
How it was run: as §2

iAstro [25] = test: as above
How it was run: as §2

SUDIPGXVII [26] = test: as above
How it was run: as §2

DIPGX37 [27] = test: as above
How it was run: as §2

HGGX39 [28] = test: as above
How it was run: as §2

SUDIPGXIX [29] = test: as above
How it was run: as §2

DIPGX7 [30] = test: as above
How it was run: as §2

SMILES | EC50 (log10 M) (DIPGX29 [1]) | EC50 (log10 M) (HGGX2 [2]) | EC50 (log10 M) (HABS [3]) | EC50 (log10 M) (SUDIPGXIII [4]) | EC50 (log10 M) (HGGX42 [5]) | EC50 (log10 M) (SUDIPGIV [6]) | EC50 (log10 M) (DIPGX9 [7]) | EC50 (log10 M) (SUDIPGVI [8]) | EC50 (log10 M) (SUDIPGXXI [9]) | EC50 (log10 M) (iAstro [10]) | EC50 (log10 M) (SUDIPGXVII [11]) | EC50 (log10 M) (DIPGX37 [12]) | EC50 (log10 M) (HGGX39 [13]) | EC50 (log10 M) (SUDIPGXIX [14]) | EC50 (log10 M) (DIPGX7 [15]) | area under dose-response curve (DIPGX29 [16]) | area under dose-response curve (HGGX2 [17]) | area under dose-response curve (HABS [18]) | area under dose-response curve (HGGX6) | area under dose-response curve (SUDIPGXIII [19]) | area under dose-response curve (HGGX42 [20]) | area under dose-response curve (SUDIPGIV [21]) | area under dose-response curve (DIPGX9 [22]) | area under dose-response curve (SUDIPGVI [23]) | area under dose-response curve (SUDIPGXXI [24]) | area under dose-response curve (iAstro [25]) | area under dose-response curve (SUDIPGXVII [26]) | area under dose-response curve (DIPGX37 [27]) | area under dose-response curve (HGGX39 [28]) | area under dose-response curve (SUDIPGXIX [29]) | area under dose-response curve (DIPGX7 [30])
CCN(CC)CCNC(=O)c1c(C)[nH]c(/C=C2\C(=O)Nc3ccc(F)cc32)c1C [SUNITINIB] | -4.95 | -5.16 | -4.96 | -4.94 | -5.25 | -4.83 | -5.03 | -5.01 | -5.41 | -5.05 | -4.97 | -4.77 | -4.77 | -5.05 | -4.99 | 97.9 | 141 | 122 | 95.1 | 144 | 193 | 99.2 | 129 | 124 | 176 | 113 | 128 | 103 | 100 | 135 | 123
CN(C)C/C=C/C(=O)Nc1ccc(C(=O)Nc2cccc(Nc3ncc(Cl)c(-c4c[nH]c5ccccc45)n3)c2)cc1 [THZ1] | -7.44 | -7.58 | -6.72 | -7.62 | -7.25 | -7.91 | -8.19 | -8.04 | -8.32 | -5.76 | -7.78 | -7.71 | -7.15 | -8.07 | -8.02 | 301 | 349 | 284 | 267 | 308 | 360 | 342 | 372 | 345 | 460 | 186 | 329 | 302 | 272 | 343 | 356
